Patent US8269005B2 (Sunovion Pharmaceuticals Inc., priority 2007, dated 2012)

Experiments:
[1] = Tablet dissolution over time in media of various pH; format: physicochemical; conditions: for Dependence of dissolution on pH of the medium: oral dosage form, pH 1 to 6.8 and deionized water; for Dissolution / Fraction of tablet dissolved: tablet
Experimental: The dissolution media used were (a) pH 1 (0.1N HCl) 50 ml of cone HCl mixed in 6 L of water; (b) pH 4.5 acetate buffer (20 mM) […] of sodium acetate trihydrate dissolved in 6 L of water, pH adjusted to 4.5 with acetic acid; (c) pH 5.5 phosphate buffer (20 mM) 16.3 g of potassium dihydrogen phosphate in 6 L of water. pH adjusted to 5.5 with NaOH; (d) pH 6.8 phosphate buffer (20 mM) 16.3 g of potassium dihydrogen phosphate in 6 L of water. pH adjusted 6.8 with NaOH. A standard dissolution protocol was used. The standard solution (0.006 mg/mL of eszopiclone free base) was prepared by weighing a known amount (˜20 mg) of the free base into a 100 mL volumetric flask. 10 mL of acetonitrile was added into the flask and sonicated until the solids dissolved completely. The solution was cooled to room temperature and made up to the 100 mL mark using media and mixed well. Dilute 3 mL to 100 mL using media. The tables were prepared by transferring 500 mL dissolution media into the 6 vessels. Blank readings were taken for all the probes using media. Standards were read for individual vessels. Probes were washed with media and then inserted back into each vessel. One tablet was transferred into each vessel. The dissolution program was started immediately and readings were taken at 305 nm for 60 min (every 1 min for 20 min and then every 10 min).
FIG. 1 depicts dissolution profiles of the eszopiclone free base at pH 1 (0.1N HCl), pH 4.5 in buffer, pH 5.5 in buffer, pH 6.8 in buffer and in deionized water. […] It can be seen that the dissolution is greater than 50% within five minutes and greater than 80% at one hour at all pH.

[2] = Aqueous solubility (24 hour equilibrated suspension in water, HPLC); format: physicochemical; conditions: for pH measured at saturation: saturated suspension in water
Experimental: The aliquot was diluted and analyzed by HPLC (Waters). The data was compared to a standard curve generated from a set of solutions of known concentrations. The standard curve and the samples were analyzed using a HPLC using the following conditions: […]

Row | Structure (SMILES) | Dependence of dissolution on pH of the medium ([1]; listed as L-malate salt) | Dissolution ([1]; at one hour, all pH (pH 1, 4.5, 5.5, 6.8, deionized water)) | Dissolution ([1]; within five minutes, all pH (pH 1, 4.5, 5.5, 6.8, deionized water)) | pH measured at saturation [2] | Dependence of dissolution on pH of the medium ([1]; listed as eszopiclone free base) | Fraction of tablet dissolved ([1]; deionized water, at one hour) | Dissolution ([1]; pH 1 (0.1N HCl)) | Fraction of tablet dissolved ([1]; pH 6.8 buffer, at one hour) | Solubility ([2]; water, ambient, equilibrated 24 hour)
1 | CN1CCN(C(=O)O[C@H]2c3nccnc3C(=O)N2c2ccc(Cl)cn2)CC1 [L-malate, (S)-Zopiclone L-Malate] | dissolve quickly and at substantially the same rate, regardless of the pH of the dissolving medium | greater than 80% | greater than 50% | 3.9 | – | – | – | – | –
2 | CN1CCN(C(=O)O[C@H]2c3nccnc3C(=O)N2c2ccc(Cl)cn2)CC1 [Free base, [(9S)-8-(5-chloropyridin-2-yl)-7-oxo-2,5,8-triazabicyclo[4.3.0]nona-1,3,5-trien-9-yl]-4-methyl piperazine-1-carboxylate] | – | – | – | 7.6 | decreases markedly as the pH rises | less than one half | rapid and complete | less than one half | 0.2^1 mgA/mL
